From patent publication EP1087941B9, “THIOLESTERS AND USES THEREOF” (THE UNITED STATES OF AMERICA, as represented by THE …, priority 1998, dated 1999)
Where two headings read alike, the source gives them in different places.

Columns and labels:
HIV-1RF = assay: XTT cytoprotection assay (antiviral activity); format: cell-based; settings: for antiviral activity: result in words
Description: (§1) One exemplary means to determine antiviral activity is with CEM-SS cells and virus (e.g., HIV-1RF) (MOI = 0.01) using the XTT (2,3-bis[2-methoxy- 4-nitro-5-sulfophenyl] -5- [(phenylamino)carbonyl]-2H-tetrazolium hydroxide) cytoprotection assay, as described by Rice (1993) PNAS 90:9721-9724, and Rice (1997) Antimicrob. Agents Chemother. 41:419-426. Briefly, cells are infected with HIV-1RF (or other virus to be tested) in the presence of various dilutions of test compounds (thiolesters and controls). The cultures are incubated for seven days. During this time control cultures without protective compounds (i.e., compounds with anti-viral activity) replicate virus, induce syncytia, and result in about 90% cell death. The cell death is measured by XTT dye reduction. XTT is a soluble tetrazolimn dye that measures mitochondrial energy output, similar to MTT. Positive controls using dextran sulfate (an attachment inhibitor) or 3'-Azido -2'-3'-dideoxythymidine, AZT (a reverse transcriptase inhibitor) are added to each assay. Individual assays are done in duplicate using a sister plate method.
(§2) Effective antiviral concentrations providing 50% cytoprotection (EC50), and cellular growth inhibitory concentrations causing 50% cytotoxicity (IC50) are calculated.

CEM-SS cells = assay: cells; format: cell-based; settings: for IC50: Homo sapiens, CEM-SS; for toxicity at the high test dose: high test dose of 316 µM
Description: as §1, §2

[1] = target: T1, recombinant HIV-1 NCp7 protein (Human immunodeficiency virus type 1 group M subtype B, UniProt P03347); assay: Trp37 zinc finger fluorescence (zinc ejection) assay; format: biochemical; settings: for Zinc Finger Reactivity RFU/30 min: Table 2; for zinc finger reactivity: result in words
T1 construct: within the nucleocapsid p7 (NCp7) protein portion of the polyprotein
Procedure: Zinc finger reactivity was measured using a Zn specific fluorochrome, TSQ, N-(6-methoxy-8-quinolyl) -p-toluenesulfonamide, assay or a Trp37 zinc finger fluorescence assay. Fluorescent measurements of the Trp37 residue in the C-terminal finger of recombinant HIV-1 NCp7 protein were performed as described by Rice (1995) Science 270:1194-1197; Rice (1997) Antimicrob. Agents Chemother. 41:419-426. Measurement of Zn ejection from both fingers was measured using the Zn-selective fluorchrome probe TSQ (Molecular Probes, Eugene OR) as described by Rice (1996) J. Med. Chem 39:3606-3616. Measurement of the ability of NCp7 to bind to a DNA oligomer, a 44 mer: […] (SEQ ID NO:1), analogous to the HIV-1 RNA packaging site was carried out as described by Huang (1998) J. Med. Chem. 41:1371-1381, see also, Rossio (1998) HIV Pathogenesis and Treatment: Keystone Symposium on Molecular and Cellular Biology, Abstract # 4082. Briefly, 50 nM NCp7 was treated with test compounds for 1 hour at RT in […] buffer containing 10% glycerol and 50 mM Tris-HCl (pH 7.5). Labeled oligomer (0.1 picomole, end labeled [^32P]) was added in an equal volume of buffer containing 10% glycerol, 50 mM Tris-HCl (pH 7.5), 400 mM KCl and 40 mM MgCl2. The reaction was continued for 15 min at room temperature, and a total of […] (or 1/4 of the total reaction volume) was separated on nondenaturing 4.5% polyacrylamide gels in 0.5X Tris-Borate electrophoresis buffer. NCp7-oligomer complexes were visualized by autoradiography.
Changes in the intrinsic fluorescence of aromatic protein moieties are commonly used to monitor a reaction which involves a change in protein conformation. In the present invention, fluorescence can be used to monitor the loss of metal ion from a zinc finger, e.g., the loss of zinc from a CCHC retroviral zinc finger protein, after contact with a thiolester of the invention. The intrinsic fluorescence of Trp 37 in the second zinc finger of HIV-1 NC protein has been used to monitor nucleic acid binding and conformation of the zinc finger complex (see, Summers (1992) supra).
Zinc ejection is measured by the ability of compounds to chemically attack the cysteines in purified NCp7 protein resulting in a loss of fluorescence due to the movement of the tryptophan 37 residue from an exposed to an internal position on the protein. Zinc ejection is measured and expressed as either percent decrease in total fluorescence or decrease in relative fluorescence units per min during a 30 min assay (RFU/min). A thiolester is considered within the scope of the invention if any amount of zinc ejection is detected. For example, compound 50 has a zinc ejection rate of 0.86 RFU/min.

[2] = Human immunodeficiency virus 1, read-out: Antiviral Activity EC50%
[3] = read-out: Antiviral Activity IC50
[4] = Table 6, average decrease in relative fluorescence units over 30 min
[5] = read-out: Antiviral Activity IC50%
[6] = Table 10, average decrease in relative fluorescence units over 30 min
[7] = Human immunodeficiency virus 1, B104
[8] = Human immunodeficiency virus 1, read-out: Antiviral Activity EC50
[9] = Human immunodeficiency virus 1, read-out: EC50 (concentration inhibiting 50% virus replication)
[10] = Table 3, average decrease in relative fluorescence
[11] = read-out: IC50 / cellular toxicity
[12] = Table 5, average decrease in relative fluorescence units over 30 min
[13] = average decrease in relative fluorescence
[14] = Table 4, average decrease in relative fluorescence units over 30 min

## CC(=O)Nc1ccc(S(=O)(=O)c2ccc(NC(=O)c3ccccc3SC(=O)CCCC[n+]3ccccc3)cc2)cc1 [Compound 51]
HIV-1RF; [2]
  EC50: 4.6 µM
CEM-SS cells; [3]
  IC50: 288 µM
[1]; [4]
  Zinc Finger Reactivity RFU/ min: 1.7 RFU/ min

## CC(=O)NS(=O)(=O)c1ccc(NC(=O)c2ccccc2SC(=O)CCC[n+]2ccccc2)cc1 [Compound 54]
HIV-1RF; [2]
  EC50: 10.1 µM
CEM-SS cells; [5]
  IC50: 175 µM
[1]; [6]
  Zinc Finger Reactivity RFU/ min: 2.2 RFU/ min

## Nc1ccc(S(=O)(=O)c2ccc(NC(=O)c3ccccc3SSc3ccccc3C(=O)Nc3ccc(S(=O)(=O)c4ccc(N)cc4)cc3)cc2)cc1 [Compound 26D]
HIV-1RF; [7]
  EC50: 4.3 µM
HIV-1RF; [8]
  EC50: 4.3 µM
HIV-1RF; [9]
  EC50: 4.3 µM
CEM-SS cells; [3]
  IC50: < 316 µM
CEM-SS cells
  toxicity at the high test dose: no toxicity
[1]
  zinc finger reactivity / zinc ejection rate: 3.3 RFU/min
[1]; [10]
  Zinc Finger Reactivity RFU/ min: 3.3 RFU/ min

## CC(=O)NS(=O)(=O)c1ccc(NC(=O)c2ccccc2SC(=O)CCCC[n+]2cccc(Cl)c2)cc1 [Compound 57]
HIV-1RF; [2]
  EC50: 54 µM
CEM-SS cells; [5]
  IC50: 264 µM
[1]; [6]
  Zinc Finger Reactivity RFU/ min: 0.2 RFU/ min

## O=c1c2ccccc2sn1-c1ccc(S(=O)(=O)c2ccc([N+](=O)[O-])cc2)cc1 [31 BITA]
HIV-1RF; [8]
  EC50: > 316 µM
HIV-1RF
  antiviral activity: without antiviral activity
CEM-SS cells; [3]
  IC50: > 316 µM
[1]; [10]
  Zinc Finger Reactivity RFU/ min: 4.1 RFU/ min

## O=c1c2ccccc2sn1-c1ccc(S(=O)(=O)c2ccc(NS(=O)(=O)Cc3ccccc3[N+](=O)[O-])cc2)cc1 [34 BITA]
HIV-1RF; [8]
  EC50: 3.2 µM
HIV-1RF
  antiviral activity: significant antiviral activity
CEM-SS cells; [3]
  IC50: 59.5 µM
[1]; [10]
  Zinc Finger Reactivity RFU/ min: 2 RFU/ min

## CC(=O)NS(=O)(=O)c1ccc(NC(=O)c2ccccc2SC(=O)c2ccccc2)cc1 [Compound 41]
HIV-1RF; [8]
  EC50: 2.6 µM
CEM-SS cells; [5]
  IC50: 45.7 µM
CEM-SS cells; [11]
  IC50: ~50 µM
[1]; [12]
  Zinc Finger Reactivity RFU/ min: 2.2 RFU/ min

## NS(=O)(=O)c1ccc(CCNC(=O)c2ccccc2SSc2ccccc2C(=O)NCCc2ccc(S(N)(=O)=O)cc2)cc1 [Compound 24D, N,N-(2,2'-dithiodibenzoyl)-bis-4-(2-aminoethyl)benzene-sulfonamide]
HIV-1RF; [8]
  EC50: 0.41 µM
CEM-SS cells; [3]
  IC50: 52.8 µM
[1]; [13]
  Zinc Finger Reactivity RFU/30 min: 2.7 RFU/30 min

## O=C(CCCCBr)Sc1ccccc1C(=O)Nc1ccc(S(=O)(=O)c2ccc([N+](=O)[O-])cc2)cc1 [Compound 46]
HIV-1RF; [2]
  EC50: 1.6 µM
CEM-SS cells; [3]
  IC50: 21.7 µM
[1]; [4]
  Zinc Finger Reactivity RFU/ min: 1 RFU/ min

## CC(=O)Nc1cccc(S(=O)(=O)c2cccc(NC(=O)c3ccccc3SSc3ccccc3C(=O)Nc3cccc(S(=O)(=O)c4cccc(NC(C)=O)c4)c3)c2)c1 [Compound 36]
HIV-1RF; [7]
  EC50: 0.62 µM
HIV-1RF; [8]
  EC50: 0.62 µM
CEM-SS cells; [3]
  IC50: 5.9 µM
[1]
  zinc finger reactivity / zinc ejection rate: 2 RFU/min
[1]; [14]
  Zinc Finger Reactivity RFU/ min: 2 RFU/min

## CC(=O)NS(=O)(=O)c1ccc(NC(=O)c2ccccc2SC(C)=O)cc1 [Compound 40]
HIV-1RF; [8]
  EC50: 2.8 µM
CEM-SS cells; [5]
  IC50: 56.7 µM
CEM-SS cells; [11]
  IC50: ~50 µM
[1]; [12]
  Zinc Finger Reactivity RFU/ min: 4.2 RFU/ min

## CC(=O)Nc1ccc(S(=O)(=O)c2ccc(NC(=O)c3ccccc3SSc3ccccc3C(=O)Nc3ccc(S(=O)(=O)c4ccc(NC(C)=O)cc4)cc3)cc2)cc1 [Compound 27D]
HIV-1RF; [7]
  EC50: 1.5 µM
HIV-1RF; [8]
  EC50: 1.5 µM
HIV-1RF; [9]
  EC50: 1.5 µM
CEM-SS cells; [3]
  IC50: 160 µM
CEM-SS cells; [11]
  IC50: 160 µM
[1]
  zinc finger reactivity / zinc ejection rate: 5.9 RFU/min
[1]; [10]
  Zinc Finger Reactivity RFU/ min: 5.9 RFU/ min

## NS(=O)(=O)c1ccc(CNC(=O)c2ccccc2SC(=O)CCCC[n+]2ccccc2)cc1 [Compound 48]
HIV-1RF; [2]
  EC50: 1.1 µM
CEM-SS cells; [3]
  IC50: 55 µM
CEM-SS cells; [11]
  IC50: 55 µM
[1]; [4]
  Zinc Finger Reactivity RFU/ min: 1.4 RFU/ min

## O=C(Nc1ccc(S(=O)(=O)c2ccc(NS(=O)(=O)Cc3ccccc3[N+](=O)[O-])cc2)cc1)c1ccccc1SSc1ccccc1C(=O)Nc1ccc(S(=O)(=O)c2ccc(NS(=O)(=O)Cc3ccccc3[N+](=O)[O-])cc2)cc1 [Compound 34D]
HIV-1RF; [9]
  EC50: 12.3 µM
HIV-1RF
  antiviral activity: significant antiviral activity
CEM-SS cells; [3]
  IC50: > 316 µM
CEM-SS cells
  toxicity at the high test dose: no toxicity
[1]; [10]
  Zinc Finger Reactivity RFU/ min: 1.5 RFU/ min

## Nc1cccc(S(=O)(=O)c2cccc(NC(=O)c3ccccc3SSc3ccccc3C(=O)Nc3cccc(S(=O)(=O)c4cccc(N)c4)c3)c2)c1 [Compound 35]
HIV-1RF; [7]
  EC50: 1 µM
HIV-1RF; [8]
  EC50: 1 µM
CEM-SS cells; [3]
  IC50: 81.5 µM
[1]
  zinc finger reactivity / zinc ejection rate: 0.92 RFU/min
[1]; [14]
  Zinc Finger Reactivity RFU/ min: 0.92 RFU/min

## O=C(Nc1ccc(S(=O)(=O)c2ccc(NC(=O)c3ccccc3SSc3ccccc3C(=O)Nc3ccc(S(=O)(=O)c4ccc(NC(=O)c5cccs5)cc4)cc3)cc2)cc1)c1cccs1 [Compound 30D]
HIV-1RF; [8]
  EC50: 12.2 µM
CEM-SS cells; [3]
  IC50: 190 µM

## CC(=O)NS(=O)(=O)c1ccc(NC(=O)c2cccc(NC(=O)CCCl)c2)cc1 [Compound 38]
HIV-1RF; [8]
  EC50: 38 µM
HIV-1RF
  antiviral activity: neither had appreciable antiviral activity
CEM-SS cells; [5]
  IC50: 103 µM
[1]; [12]
  Zinc Finger Reactivity RFU/ min: 3.9 RFU/ min
[1]
  zinc finger reactivity: modest zinc finger reactivity

## CC(=O)NS(=O)(=O)c1ccc(NC(=O)c2ccccc2NC(=O)CCCl)cc1 [Compound 37, N-[2-(3-chloro-propionamido)benzoyl]sulfacetamide]
HIV-1RF
  antiviral activity: neither had appreciable antiviral activity
CEM-SS cells; [5]
  IC50: > 316 µM
[1]; [12]
  Zinc Finger Reactivity RFU/ min: RFU/ min^b 2.0
[1]
  zinc finger reactivity: modest zinc finger reactivity

## NS(=O)(=O)c1ccc(CNC(=O)c2ccccc2SSc2ccccc2C(=O)NCc2ccc(S(N)(=O)=O)cc2)cc1 [Compound 23D, N,N'-(2,2'-dithiodibenzoyl)-bis-4-(aminomethyl)benzene-sulfonamide]
HIV-1RF; [8]
  EC50: 0.33 µM
CEM-SS cells; [3]
  IC50: 19.4 µM
CEM-SS cells; [11]
  IC50: 19.4 µM
[1]
  zinc finger reactivity / zinc ejection rate: 3.3 RFU/min
[1]; [13]
  Zinc Finger Reactivity RFU/30 min: 3.3 RFU/30 min
